Here are results for 23 molecules from patent EP4817687A2, “NUCLEOTIDE AND NUCLEOSIDE THERAPEUTIC COMPOSITIONS AND USES RELATED THERETO” (Emory University, priority 2013, dated 2015).

Structures are written as SMILES. Like-named read-outs stand apart in the source and are kept apart here.

One data set concerns the target HCV NS5B polymerase (Hepatitis C virus genotype 1b, UniProt Q9WMX2). Put plainly: HCV NS5B pol assay (NS5B RNA-dependent RNA polymerase reaction, filter binding). It is filed as biochemical. The following applies: 1 h; for IC25: read-out: HCV NS5B pol assay (^32P-GTP) IC25; for IC95: read-out: HCV NS5B pol assay (^32P-GTP) IC95.
Data set [1] can be described thus: Cytotoxicity panel (CC50), Huh-7. It is filed as cell-based, human. As to conditions: human, huh-7 cells.
The nature of data set [2]: Cytotoxicity panel (CC50), CEM. It is filed as cell-based. As to conditions: human, cem cells.
Data set [3] is described as follows: Cytotoxicity panel (CC50), HepG2. The following applies: human, hepg2 cells. It is filed as cell-based.
Data set [4] can be described thus: Cytotoxicity panel (CC50), BxPC3. It is filed as cell-based. As to conditions: human, bxpc3 cells.
Data set [5] can be described thus: Cytotoxicity panel (CC50), IEC-6. It is filed as cell-based. As to conditions: rat, iec-6 cells.
Data set [6] in a line: Cytotoxicity panel (CC50), A204. As to conditions: human, a204 cells. It is filed as cell-based.
Data set [7] is described as follows: Cytotoxicity panel (CC50), H9c. The following applies: rat, h9c cells. It is filed as cell-based.
The next data set concerns HepG2. As to the kind of experiment: Cytotoxicity panel (CC50), HepG2. It is filed as cell-based. As to conditions: HepG2.
Another data set concerns Huh-7. As to the kind of experiment: Cytotoxicity panel (CC50), Huh-7. As to conditions: Huh-7. It is filed as cell-based, human.
Another data set deals with IEC-6. As to the kind of experiment: Cytotoxicity panel (CC50), IEC-6. It is filed as cell-based. The following applies: IEC-6.
A further data set concerns BxPC3. As to the kind of experiment: Cytotoxicity panel (CC50), BxPC3. It is filed as cell-based. The following applies: BxPC3.
The test system of another data set is A204. Put plainly: Cytotoxicity panel (CC50), A204. It is filed as cell-based. As to conditions: A204.
For another data set, the system named is H9c. As to the kind of experiment: Cytotoxicity panel (CC50), H9c. The following applies: H9c. It is filed as cell-based.
Data set [8] concerns 3a (GT1b/3a NS5B chimera). Put plainly: microbe, parasite or virus in culture. It is filed as cell-based, HCV. As to conditions: Hepatitis C virus, read-out: EC50(µM) 3a (GT1b/3a NS5B chimera).
The nature of data set [9]: Cytotoxicity (CC50) in the GT1b replicon test. It is filed as cell-based. As to conditions: gt1b replicon cells. (In general: In antiviral work, replicon cells carry a viral genome segment that copies itself.)
Data set [10] relates to 4a (GT1b/4a NS5B chimera). As to the kind of experiment: microbe, parasite or virus in culture. It is filed as cell-based, HCV. As to conditions: Hepatitis C virus, read-out: EC50(µM) 4a (GT1b/4a NS5B chimera).
The subject of a further data set is GT1b-NS5B-S282T. Put plainly: microbe, parasite or virus in culture. It is filed as cell-based, HCV. The following applies: Hepatitis C virus, read-out: EC50(µM) GT1b-NS5B-S282T.
Data set [11] has as its system 2b (GT1b/2b NS5B chimera). Put plainly: microbe, parasite or virus in culture. It is filed as cell-based, HCV. The following applies: Hepatitis C virus, read-out: EC50(µM) 2b (GT1b/2b NS5B chimera).
For another data set, the system named is GT1b-NS5B-S96T. As to the kind of experiment: microbe, parasite or virus in culture. As to conditions: Hepatitis C virus, read-out: EC50(µM) GT1b-NS5B-S96T. It is filed as cell-based, HCV.
The subject of a further data set is Dengue Type 2. As to the kind of experiment: Anti-Dengue Virus Cytoprotection Assay, Dengue Type 2.
The nature of data set [12]: Anti-Dengue assay, toxicity (XTT) in Vero cells. The following applies: monkey. A general note: Tetrazolium assays rely on reduction of a dye to a coloured formazan, in cell work by metabolically active cells.

Take `C[C@@]1(F)[C@H](O)[C@@H](COP(=O)(O)OP(=O)(O)OP(=O)(O)O)O[C@H]1n1ccc(=O)[nH]c1=O`: on HCV NS5B polymerase, the IC25 is 0.52 µM and the IC95 was determined as 9.91 µM.

Turning to `C[C@@]1(O)[C@H](O)[C@@H](COP(=O)(O)OP(=O)(O)OP(=O)(O)O)O[C@H]1n1ccc(=O)[nH]c1=[Se]`, on HCV NS5B polymerase, the IC25 amounted to 6.82 µM and the IC95 is > 100 µM.

In data set [1], `O=c1[nH]c(=S)ccn1[C@@H]1O[C@H](CO)[C@@H](O)[C@H]1O` yielded a CC50 of 60 µM.

For the molecule `C[C@@]1(O)[C@H](O)[C@@H](CO)O[C@H]1n1ccc(=S)[nH]c1=O`, the CC50 was > 400 µM in data set [2], > 100 µM in [1], > 400 µM in data set [3] and > 100 µM in data set [4].

In the case of `C[C@@]1(F)[C@H](O)[C@@H](CO)O[C@H]1n1ccc(=S)[nH]c1=O`, the CC50 in data set [2], in data set [1] and in data set [3] was > 400 µM in each case.

Consider `CC(C)OC(=O)[C@H](C)NP(=O)(OC[C@H]1O[C@@H](n2ccc(=S)[nH]c2=O)[C@](C)(F)[C@@H]1O)Oc1ccccc1` (stereo partly drawn), for which the CC50 in data set [1] was > 300 µM; in [5] it was > 400 µM; in data set [4], > 300 µM; in data set [6] it was > 200 µM; in data set [7] it was > 400 µM.

Molecule `CC(C)OC(=O)[C@H](C)NP(=O)(OC[C@H]1O[C@@H](n2ccc(=O)[nH]c2=O)[C@](C)(O)[C@@H]1O)Oc1ccccc1` (stereo partly drawn) displayed a CC50 in data set [5] of 80 µM.

Turning to `CC(C)OC(=O)[C@H](C)NP(=O)(OC[C@H]1O[C@@H](n2ccc(=O)[nH]c2=[Se])[C@](C)(O)[C@@H]1O)Oc1ccccc1` (stereo partly drawn), the CC50 in [1] was > 100 µM; in data set [3], > 400 µM; in [4], > 400 µM; in [6] it was > 400 µM.

As to `CC(C)OC(=O)[C@H](C)N[P@@](=O)(OC[C@H]1O[C@@H](n2ccc(=O)[nH]c2=O)[C@](C)(F)[C@@H]1O)Oc1ccccc1`, the CC50 in [2], in data set [1] and in data set [3] was > 400 µM in each case.

As to `C[C@H](NP(=O)(O)OC[C@H]1O[C@@H](n2ccc(=O)[nH]c2=S)[C@](C)(O)[C@@H]1O)C(=O)O`, the half-maximal cytotoxic concentration (CC50) in data set [2], in [1] and in data set [3] was > 400 µM throughout.

For the molecule `C[C@@]1(O)[C@H](O)[C@@H](COP(=O)(O)O)O[C@H]1n1ccc(=O)[nH]c1=S`, the CC50 in data set [2], in [1] and in data set [3] was > 400 µM in each case.

Turning to `CC(C)OC(=O)[C@H](C)NP(=O)(OC[C@H]1O[C@@H](n2ccc(=S)[nH]c2=O)[C@H](O)[C@@H]1O)Oc1ccccc1` (stereo partly drawn) [drawing 445], the CC50 with HepG2 was > 400 µM.

`CC(C)OC(=O)[C@H](C)NP(=O)(OC[C@H]1O[C@@H](n2ccc(=S)[nH]c2=O)[C@](C)(O)[C@@H]1O)Oc1ccccc1` (stereo partly drawn) [drawing 447]: the CC50 is > 400 µM with Huh-7; > 400 µM in the data set with IEC-6; > 300 µM in the data set on BxPC3; > 200 µM in the data set on A204; > 200 µM in the data set with H9c.

Take `CC(C)OC(=O)[C@H](C)NP(=O)(OC[C@H]1O[C@@H](n2ccc(=O)[nH]c2=S)[C@H](O)[C@@H]1O)Oc1ccccc1` (stereo partly drawn) [drawing 451]: the CC50 in the data set on Huh-7 is > 400 µM.

Take `C[C@@]1(O)[C@H](O)[C@@H](CO)O[C@H]1n1ccc(=O)[nH]c1=S` [drawing 452]: the half-maximal cytotoxic concentration (CC50) is > 200 µM in [2], > 100 µM in [1], > 400 µM in data set [3] and > 100 µM in data set [4].

`CC(C)OC(=O)[C@H](C)NP(=O)(OC[C@H]1O[C@@H](n2ccc(=O)[nH]c2=S)[C@](C)(O)[C@@H]1O)Oc1ccccc1` (stereo partly drawn) [drawing 453]: the CC50 in data set [2] is > 300 µM; in [1], > 400 µM; in data set [5], > 200 µM; in data set [3], > 400 µM; in data set [4], > 300 µM; in [6], 98 µM. Also, the CC50 in [7] is > 200 µM.

Turning to `CC(C)OC(=O)[C@H](C)NP(=O)(OC[C@H]1O[C@@H](n2ccc(=S)[nH]c2=O)[C@](C)(O)[C@@H]1O)Oc1ccccc1` (stereo partly drawn) [drawing 455], the CC50 in data set [2] was 169 µM; in data set [1] it was > 400 µM; in data set [5] it was > 400 µM; in data set [3] it was > 400 µM; in data set [4] it was > 300 µM; in data set [6], > 200 µM. Also, the CC50 in data set [7] was > 200 µM.

Turning to `CC(C)OC(=O)[C@H](C)N[P@](=O)(OC[C@H]1O[C@@H](n2ccc(=O)[nH]c2=O)[C@](C)(F)[C@@H]1O)Oc1ccccc1` [drawing 460], the CC50 in data set [2] is > 400 µM.

As to `CC(C)OC(=O)[C@H](C)NP(=O)(OC[C@H]1O[C@@H](n2ccc(=S)[nH]c2=O)[C@H](O)[C@@H]1O)Oc1ccccc1` (stereo partly drawn) [drawing 462], the figures for the CC50 (in data set [2]; in the data set on Huh-7; in [3]) were > 400 µM, 369 µM and > 400 µM, respectively.

As for `CC(C)OC(=O)[C@H](C)NP(=O)(OC[C@H]1O[C@@H](n2ccc(=O)[nH]c2=S)[C@H](O)[C@@H]1O)Oc1ccccc1` (stereo partly drawn) [drawing 463], the CC50 in data set [2], in data set [1] and in [3] was > 400 µM in each case.

Turning to `CC(C)OC(=O)[C@H](C)NP(=O)(OC[C@H]1O[C@@H](n2ccc(=O)[nH]c2=S)[C@](C)(O)[C@@H]1O)Oc1ccccc1` (stereo partly drawn) [drawing 470], the EC50 in [8] is 0.0882 µM; in [10], 0.0371 µM; with GT1b-NS5B-S282T, > 10 µM; in [11] it was 0.083 µM; with GT1b-NS5B-S96T, 0.132 µM. Moreover, the CC50 in data set [9] was > 10 µM.

In the case of `CC(C)OC(=O)[C@H](C)N[P@](=O)(OC[C@H]1O[C@@H](n2ccc(=O)[nH]c2=O)[C@](C)(F)[C@@H]1O)Oc1ccccc1` [drawing 472], the EC50 was 0.0385 µM in data set [8]; 0.0493 µM in [10]; 0.287 µM in the data set with GT1b-NS5B-S282T; 0.0199 µM in data set [11]; 0.0702 µM with GT1b-NS5B-S96T. In addition, the CC50 in data set [9] was > 2 µM.

Take `C[C@@]1(O)[C@H](O)[C@@H](CO)O[C@H]1n1ccc(=O)[nH]c1=S` [drawing 473]: the EC50 in the data set on Dengue Type 2 (Huh-7, read-out: Dengue Type 2 Huh-7 Cells (EC50 uM)) is > 100 µM; in the data set with Dengue Type 2 (Vero, read-out: Dengue Type 2 Vero Cells (EC50 uM)), 7.79 µM. The CC50 in data set [12] was > 100 µM.

In general, IC25 refers to the concentration needed for an effect of 25%. In general, IC95 refers to the concentration at which the effect reaches the 95% level. In general, CC50 refers to the concentration that lowers cell viability or growth by half.
